Measurements taken from PubChem BioAssay (NCI).
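Test compounds were applied to cells in 96-well plates for 48 hours at 5 doses. GI50 marks 50% less growth. At the TGI there is no net growth.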

Columns and labels:
Assay in all cases: DTP human tumour cell line panel, 48 h
OVCAR-4 ovarian = tested on: OVCAR-4 ovarian
786-0 renal = tested on: 786-0 renal
HT29 colon = tested on: HT29 colon
NCI-H460 lung = tested on: NCI-H460 lung
SW-620 colon = tested on: SW-620 colon
IGROV1 ovarian = tested on: IGROV1 ovarian
SNB-19 CNS = tested on: SNB-19 CNS
SF-295 CNS = tested on: SF-295 CNS
MDA-MB-435 = tested on: MDA-MB-435
CCRF-CEM leukemia = tested on: CCRF-CEM leukemia

SMILES: Cc1cc2c3ccc(C)[n+](C)c3ccc2n1C
- GI50 (OVCAR-4 ovarian): 4.18 µM
- TGI (OVCAR-4 ovarian): 30.1 µM
- GI50 (786-0 renal): 5 µM
- TGI (786-0 renal): > 100 µM
- GI50 (HT29 colon): 3.07 µM
- TGI (HT29 colon): 23.8 µM
- GI50 (NCI-H460 lung): 3.9 µM
- TGI (NCI-H460 lung): 28.8 µM
- GI50 (SW-620 colon): 2.15 µM
- TGI (SW-620 colon): > 100 µM
- GI50 (IGROV1 ovarian): 3.14 µM
- TGI (IGROV1 ovarian): 65.3 µM
- GI50 (SNB-19 CNS): 2 µM
- TGI (SNB-19 CNS): 14 µM
- GI50 (SF-295 CNS): 2.34 µM
- TGI (SF-295 CNS): 15.6 µM
- GI50 (MDA-MB-435): 5.12 µM
- TGI (MDA-MB-435): 21.9 µM

SMILES: COc1cc2c(cc1OC(=O)CC(C)O)C1C(OC2=O)C(OC(C)=O)C=C2CCN(C)[C@H]21 (some centres undefined)
- TGI (OVCAR-4 ovarian): > 100 µM
- TGI (CCRF-CEM leukemia): > 100 µM
- TGI (786-0 renal): 53.7 µM
- TGI (HT29 colon): > 100 µM
- TGI (NCI-H460 lung): > 100 µM
- TGI (SW-620 colon): > 100 µM
- TGI (IGROV1 ovarian): 70.4 µM
- TGI (SNB-19 CNS): 57.5 µM
- TGI (SF-295 CNS): 49.9 µM

SMILES: CC(CN1CCN(CCOCCO)CC1)CN1c2ccccc2Sc2ccc(Cl)cc21 (centres undefined)
- GI50 (OVCAR-4 ovarian): 4.22 µM
- TGI (OVCAR-4 ovarian): 16 µM
- GI50 (CCRF-CEM leukemia): 2.68 µM
- TGI (CCRF-CEM leukemia): 8.74 µM
- GI50 (786-0 renal): 4.79 µM
- TGI (786-0 renal): 18 µM
- GI50 (HT29 colon): 1.79 µM
- TGI (HT29 colon): 3.36 µM
- GI50 (NCI-H460 lung): 2.36 µM
- TGI (NCI-H460 lung): 5.35 µM
- GI50 (SW-620 colon): 1.84 µM
- TGI (SW-620 colon): 3.58 µM
- GI50 (IGROV1 ovarian): 3.36 µM
- TGI (IGROV1 ovarian): 13.3 µM
- GI50 (SNB-19 CNS): 8.14 µM
- TGI (SNB-19 CNS): 21.8 µM
- GI50 (MDA-MB-435): 2.06 µM
- TGI (MDA-MB-435): 4.96 µM

SMILES: CS(=O)(=O)Oc1cccc(/C=N/N=C(\N)NO)c1
- TGI (OVCAR-4 ovarian): > 100 µM
- TGI (CCRF-CEM leukemia): > 100 µM
- TGI (786-0 renal): 54.3 µM
- TGI (HT29 colon): > 100 µM
- TGI (NCI-H460 lung): > 100 µM
- TGI (SW-620 colon): 63.4 µM
- TGI (IGROV1 ovarian): > 100 µM
- TGI (SNB-19 CNS): > 100 µM
- TGI (SF-295 CNS): > 100 µM

SMILES: CC(C)CC(CC1=CCC2CC1C2(C)C)C1=C(O)C(C)(C)C(=O)C(C)(C)C1=O (centres undefined)
- GI50 (OVCAR-4 ovarian): 0.486 µM
- TGI (OVCAR-4 ovarian): > 100 µM
- GI50 (CCRF-CEM leukemia): 0.353 µM
- TGI (CCRF-CEM leukemia): 3.12 µM
- GI50 (786-0 renal): 0.363 µM
- TGI (786-0 renal): > 100 µM
- GI50 (HT29 colon): 0.383 µM
- TGI (HT29 colon): 11.2 µM
- GI50 (SW-620 colon): 0.4 µM
- TGI (SW-620 colon): > 100 µM
- GI50 (IGROV1 ovarian): 0.5 µM
- TGI (IGROV1 ovarian): > 100 µM
- GI50 (SNB-19 CNS): 0.375 µM
- TGI (SNB-19 CNS): > 100 µM
- GI50 (SF-295 CNS): 0.285 µM
- TGI (SF-295 CNS): 0.942 µM
- GI50 (MDA-MB-435): 0.374 µM
- TGI (MDA-MB-435): 31.8 µM

SMILES: O=C1C(=O)N(c2ccc(Cl)c(Cl)c2)C(=O)C(=O)C1c1nc2ccccc2s1
- TGI (OVCAR-4 ovarian): > 100 µM
- TGI (CCRF-CEM leukemia): > 100 µM
- TGI (786-0 renal): > 100 µM
- TGI (HT29 colon): > 100 µM
- TGI (SW-620 colon): > 100 µM
- TGI (IGROV1 ovarian): > 100 µM
- TGI (SNB-19 CNS): > 100 µM
- TGI (SF-295 CNS): > 100 µM

SMILES: Brc1cccc(C2SCc3nc4ccccc4n32)c1 (centres undefined)
- TGI (OVCAR-4 ovarian): 63.3 µM
- TGI (CCRF-CEM leukemia): > 100 µM
- TGI (786-0 renal): 44.5 µM
- TGI (HT29 colon): 52.3 µM
- TGI (NCI-H460 lung): 99.1 µM
- TGI (SW-620 colon): > 100 µM
- TGI (IGROV1 ovarian): 98.9 µM
- TGI (SF-295 CNS): 86.3 µM

SMILES: O=C(O)C1(P(=O)(O)O)CC1
- TGI (OVCAR-4 ovarian): > 100 µM
- TGI (CCRF-CEM leukemia): > 100 µM
- TGI (786-0 renal): > 100 µM
- TGI (NCI-H460 lung): > 100 µM
- TGI (SW-620 colon): > 100 µM
- TGI (IGROV1 ovarian): > 100 µM
- TGI (SNB-19 CNS): > 100 µM
- TGI (SF-295 CNS): > 100 µM

SMILES: c1ccc2c(C3NCCc4[nH]cnc43)cccc2c1 (centres undefined)
- TGI (OVCAR-4 ovarian): > 100 µM
- TGI (CCRF-CEM leukemia): > 100 µM
- TGI (786-0 renal): > 100 µM
- TGI (HT29 colon): > 100 µM
- TGI (NCI-H460 lung): > 100 µM
- TGI (SW-620 colon): > 100 µM
- TGI (IGROV1 ovarian): > 100 µM
- TGI (SF-295 CNS): > 100 µM
